Laboratory results as given in PubChem BioAssay (NCI).
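Step 1: Grow cells in 96-well plates. Step 2: Expose to compound for 48 hours at 5 concentrations. Step 3: Interpolate endpoints linearly; if unreached, use highest concentration. TGI marks complete inhibition of growth.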

Columns and labels:
Experiment in all cases: NCI-60 cell line screen, 48 h
A549 NSCLC = system: A549 NSCLC
HCC-2998 colon = system: HCC-2998 colon
ACHN renal = system: ACHN renal
DU-145 prostate = system: DU-145 prostate
RPMI-8226 leukemia = system: RPMI-8226 leukemia
LOX IMVI melanoma = system: LOX IMVI melanoma
PC-3 prostate = system: PC-3 prostate
OVCAR-8 ovarian = system: OVCAR-8 ovarian
RXF 393 renal = system: RXF 393 renal
SF-295 CNS = system: SF-295 CNS
MDA-MB-231 breast = system: MDA-MB-231 breast
SNB-75 CNS = system: SNB-75 CNS
NCI-H226 lung = system: NCI-H226 lung
HS 578T breast = system: HS 578T breast
CAKI-1 renal = system: CAKI-1 renal
U251 CNS = system: U251 CNS
M14 melanoma = system: M14 melanoma
CCRF-CEM leukemia = system: CCRF-CEM leukemia
HOP-92 NSCLC = system: HOP-92 NSCLC
SW-620 colon = system: SW-620 colon
MCF7 breast = system: MCF7 breast
SK-MEL-28 melanoma = system: SK-MEL-28 melanoma
SK-MEL-5 melanoma = system: SK-MEL-5 melanoma
EKVX NSCLC = system: EKVX NSCLC
NCI/ADR-RES ovarian = system: NCI/ADR-RES ovarian
UO-31 renal = system: UO-31 renal
MDA-MB-435 = system: MDA-MB-435
NCI-H23 lung = system: NCI-H23 lung
UACC-257 melanoma = system: UACC-257 melanoma
NCI-H460 lung = system: NCI-H460 lung
MOLT-4 leukemia = system: MOLT-4 leukemia
SK-OV-3 ovarian = system: SK-OV-3 ovarian
IGROV1 ovarian = system: IGROV1 ovarian
T-47D breast = system: T-47D breast
HCT-15 colon = system: HCT-15 colon
SN12C renal = system: SN12C renal
HOP-62 NSCLC = system: HOP-62 NSCLC
COLO 205 colon = system: COLO 205 colon
OVCAR-5 ovarian = system: OVCAR-5 ovarian
A498 renal = system: A498 renal
HT29 colon = system: HT29 colon
NCI-H522 lung = system: NCI-H522 lung
TK-10 renal = system: TK-10 renal
SNB-19 CNS = system: SNB-19 CNS
SF-539 CNS = system: SF-539 CNS
SR leukemia = system: SR leukemia
KM12 colon = system: KM12 colon
UACC-62 melanoma = system: UACC-62 melanoma
SF-268 CNS = system: SF-268 CNS
HCT-116 colon = system: HCT-116 colon
SK-MEL-2 melanoma = system: SK-MEL-2 melanoma
HL-60(TB) leukemia = system: HL-60(TB) leukemia
OVCAR-3 ovarian = system: OVCAR-3 ovarian
786-0 renal = system: 786-0 renal
K-562 leukemia = system: K-562 leukemia

O=C(Nc1ccccc1C(=O)NCc1ccccc1)/C(=C/c1ccccc1O)NC(=O)c1ccccc1
TGI (A549 NSCLC): > 100 µM
TGI (HCC-2998 colon): > 100 µM
TGI (ACHN renal): > 100 µM
TGI (DU-145 prostate): > 100 µM
TGI (RPMI-8226 leukemia): > 100 µM
TGI (LOX IMVI melanoma): > 100 µM
TGI (PC-3 prostate): > 100 µM
TGI (OVCAR-8 ovarian): > 100 µM
TGI (RXF 393 renal): > 100 µM
TGI (SF-295 CNS): > 100 µM
TGI (MDA-MB-231 breast): > 100 µM
TGI (SNB-75 CNS): 63.3 µM
TGI (NCI-H226 lung): > 100 µM
TGI (HS 578T breast): > 100 µM
TGI (CAKI-1 renal): > 100 µM
TGI (U251 CNS): > 100 µM
TGI (M14 melanoma): > 100 µM
TGI (CCRF-CEM leukemia): > 100 µM
TGI (HOP-92 NSCLC): > 100 µM
TGI (SW-620 colon): > 100 µM
TGI (MCF7 breast): > 100 µM
TGI (SK-MEL-28 melanoma): > 100 µM
TGI (SK-MEL-5 melanoma): > 100 µM
TGI (EKVX NSCLC): > 100 µM
TGI (NCI/ADR-RES ovarian): > 100 µM
TGI (UO-31 renal): > 100 µM
TGI (MDA-MB-435): > 100 µM
TGI (NCI-H23 lung): > 100 µM
TGI (UACC-257 melanoma): > 100 µM
TGI (NCI-H460 lung): > 100 µM
TGI (MOLT-4 leukemia): > 100 µM
TGI (SK-OV-3 ovarian): > 100 µM
TGI (IGROV1 ovarian): > 100 µM
TGI (T-47D breast): > 100 µM
TGI (HCT-15 colon): > 100 µM
TGI (SN12C renal): > 100 µM
TGI (HOP-62 NSCLC): > 100 µM
TGI (COLO 205 colon): > 100 µM
TGI (OVCAR-5 ovarian): > 100 µM
TGI (A498 renal): > 100 µM
TGI (HT29 colon): > 100 µM
TGI (NCI-H522 lung): > 100 µM
TGI (TK-10 renal): > 100 µM
TGI (SNB-19 CNS): > 100 µM
TGI (SF-539 CNS): > 100 µM
TGI (SR leukemia): > 100 µM
TGI (KM12 colon): > 100 µM
TGI (UACC-62 melanoma): > 100 µM
TGI (SF-268 CNS): > 100 µM
TGI (HCT-116 colon): > 100 µM
TGI (SK-MEL-2 melanoma): > 100 µM
TGI (HL-60(TB) leukemia): > 100 µM
TGI (OVCAR-3 ovarian): > 100 µM
TGI (786-0 renal): > 100 µM
TGI (K-562 leukemia): > 100 µM
